Reference: PubChem BioAssay AID256 (DTP/NCI, 2004)
Values joined by “and” are separate entries in the source; they are usually repeats but may differ in a detail not shown here. Equal entries are not always repeated. Toxic doses and inconclusive results are not listed. How the source made its calls: active means survival T/C of 150% or more; inactive means T/C below 125% in these data.

Test system: CD2F1 mice, L1210 leukemia ip, survival T/C
Assay: NCI In Vivo Anticancer Drug Screen. Data for tumor model L1210 Leukemia (intraperitoneal) in CD2F1 (CDF1) mice
Settings: higher = longer survival
In short: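 Activity against a transplanted murine tumor was judged by comparing the compound group with a vehicle group. The outcome in the treated animals was divided by that in the controls.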

[1] = endpoint: mean survival time, dose: 100.0 mg/kg/injection, schedule: Q01DX009 (ip), vehicle: saline
[2] = endpoint: mean survival time, dose: 200.0 mg/kg/injection, schedule: Q01DX009 (ip), vehicle: saline
[3] = endpoint: mean survival time, dose: 100.0 mg/kg/injection, schedule: Q04DX003 (ip), vehicle: saline with Tween-80
[4] = endpoint: mean survival time, dose: 200.0 mg/kg/injection, schedule: Q04DX003 (ip), vehicle: saline with Tween-80
[5] = endpoint: mean survival time, dose: 400.0 mg/kg/injection, schedule: Q04DX003 (ip), vehicle: saline with Tween-80
[6] = endpoint: mean survival time, dose: 12.5 mg/kg/injection, schedule: Q01DX009 (ip), vehicle: water
[7] = endpoint: mean survival time, dose: 25.0 mg/kg/injection, schedule: Q01DX009 (ip), vehicle: water
[8] = endpoint: mean survival time, dose: 50.0 mg/kg/injection, schedule: Q01DX009 (ip), vehicle: water
[9] = endpoint: mean survival time, dose: 100.0 mg/kg/injection, schedule: Q04DX002 (ip), vehicle: saline with Tween-80
[10] = endpoint: mean survival time, dose: 100.0 mg/kg/injection, schedule: Q01DX009 (ip), vehicle: saline with Tween-80
[11] = endpoint: mean survival time, dose: 200.0 mg/kg/injection, schedule: Q01DX009 (ip), vehicle: saline with Tween-80
[12] = endpoint: mean survival time, dose: 400.0 mg/kg/injection, schedule: Q01DX009 (ip), vehicle: saline with Tween-80

Measured: T/C

CC1(COCCOCC2(C)CO2)CO1 (stereo not given)
inactive: [1] 111 % of control | [2] 114 % of control | endpoint: mean survival time, dose: 264.0 mg/kg/injection, schedule: Q04DX003 (ip), vehicle: saline 116 % of control | endpoint: mean survival time, dose: 400.0 mg/kg/injection, schedule: Q04DX003 (ip), vehicle: saline 113 % of control | endpoint: mean survival time, dose: 600.0 mg/kg/injection, schedule: Q04DX003 (ip), vehicle: saline 121 % of control

CC1NCCCNCCCNC(C)c2cccc1n2 (stereo not given)
inactive: endpoint: mean survival time, dose: 50.0 mg/kg/injection, schedule: Q04DX002 (ip), vehicle: saline 104 % of control

CSc1cc(NC(C)=O)nc2nc[nH]c12
inactive: endpoint: mean survival time, dose: 100.0 mg/kg/injection, schedule: Q01DX001 (ip), vehicle: Klucel (hydroxypropylcellulose) (HPC) 98 % of control | endpoint: mean survival time, dose: 200.0 mg/kg/injection, schedule: Q01DX001 (ip), vehicle: Klucel (hydroxypropylcellulose) (HPC) 97 % of control

CCOC(=O)CCC(=O)CC(O)(C(F)(F)F)C(F)(F)Cl (stereo not given)
inactive: [1] 104 % of control | [3] 86 % of control | [2] 98 % of control | [4] 103 % of control | endpoint: mean survival time, dose: 400.0 mg/kg/injection, schedule: Q01DX009 (ip), vehicle: saline 107 % of control | [5] 96 % of control

O=c1ccn2c(n1)OC1CC2OC1COC(c1ccccc1)(c1ccccc1)c1ccccc1 (stereo not given)
inactive: endpoint: median survival time, dose: 12.5 mg/kg/injection, schedule: Q01DX005 (ip), vehicle: saline with Tween-80 102 % of control | endpoint: median survival time, dose: 25.0 mg/kg/injection, schedule: Q01DX005 (ip), vehicle: saline with Tween-80 96 % of control | endpoint: median survival time, dose: 50.0 mg/kg/injection, schedule: Q01DX005 (ip), vehicle: saline with Tween-80 95 % of control | endpoint: median survival time, dose: 100.0 mg/kg/injection, schedule: Q01DX005 (ip), vehicle: saline with Tween-80 95 % of control | endpoint: median survival time, dose: 200.0 mg/kg/injection, schedule: Q01DX005 (ip), vehicle: saline with Tween-80 98 % of control

COc1cc2cccc(N)c2cc1OC
inactive: [6] 95 % of control | [7] 95 % of control | [8] 95 % of control

CS(=O)CSCC(N)C(=O)O (stereo not given)
inactive: [6] 107 % of control | [7] 100 % of control | [8] 102 % of control | endpoint: mean survival time, dose: 100.0 mg/kg/injection, schedule: Q01DX009 (ip), vehicle: water 102 % of control | endpoint: mean survival time, dose: 200.0 mg/kg/injection, schedule: Q01DX009 (ip), vehicle: water 100 % of control

CC(=O)Oc1ccc2ccccc2c1-c1c(OC(C)=O)ccc2ccccc12
inactive: endpoint: mean survival time, dose: 25.0 mg/kg/injection, schedule: Q04DX002 (ip), vehicle: saline with Tween-80 101 % of control | endpoint: mean survival time, dose: 50.0 mg/kg/injection, schedule: Q04DX002 (ip), vehicle: saline with Tween-80 101 % of control | [9] 101 % of control

C=C(NC(C)=O)C(=O)CCC(N)=O
inactive: endpoint: mean survival time, dose: 5.0 mg/kg/injection, schedule: Q01DX009 (ip), vehicle: saline 101 % of control | endpoint: mean survival time, dose: 10.0 mg/kg/injection, schedule: Q01DX009 (ip), vehicle: saline 95 % of control | endpoint: mean survival time, dose: 10.0 mg/kg/injection, schedule: Q04DX003 (ip), vehicle: saline 93 % of control | endpoint: mean survival time, dose: 20.0 mg/kg/injection, schedule: Q01DX009 (ip), vehicle: saline 98 % of control | endpoint: mean survival time, dose: 20.0 mg/kg/injection, schedule: Q04DX003 (ip), vehicle: saline 97 % of control

Nc1nc(N)n2nnnc2c1[N+](=O)[O-]
inactive: endpoint: mean survival time, dose: 100.0 mg/kg/injection, schedule: Q01DX001 (ip), vehicle: carboxymethylcellulose (CMC) 108 % of control

CO[C@@H]1[C@H](O)CC[C@]2(CO2)[C@H]1[C@@]1(C)O[C@@H]1CC=C(C)C
inactive: endpoint: median survival time, dose: 1.56 mg/kg/injection, schedule: Q01DX009 (ip), vehicle: saline with Tween-80 101 % of control and 103 % of control | endpoint: median survival time, dose: 3.12 mg/kg/injection, schedule: Q01DX009 (ip), vehicle: saline with Tween-80 93 % of control and 102 % of control | endpoint: median survival time, dose: 6.25 mg/kg/injection, schedule: Q01DX009 (ip), vehicle: saline with Tween-80 97 % of control and 105 % of control | endpoint: median survival time, dose: 12.5 mg/kg/injection, schedule: Q01DX009 (ip), vehicle: saline with Tween-80 101 % of control and 102 % of control | endpoint: median survival time, dose: 25.0 mg/kg/injection, schedule: Q01DX009 (ip), vehicle: saline with Tween-80 101 % of control and 102 % of control | endpoint: median survival time, dose: 50.0 mg/kg/injection, schedule: Q01DX009 (ip), vehicle: saline with Tween-80 97 % of control and 103 % of control

Cc1ccc(S(=O)(=O)SC(F)(F)F)cc1
inactive: endpoint: mean survival time, dose: 5.0 mg/kg/injection, schedule: Q01DX001 (ip), vehicle: saline 106 % of control | endpoint: mean survival time, dose: 10.0 mg/kg/injection, schedule: Q01DX001 (ip), vehicle: saline 104 % of control

Clc1ccc(OCc2sc3ccc(Cl)cc3c2CN2CCOCC2)cc1
inactive: [10] 94 % of control | [11] 101 % of control | [12] 92 % of control

N#CC1(C#N)OC(C#N)(C#N)c2ccccc21
inactive: endpoint: mean survival time, dose: 6.25 mg/kg/injection, schedule: Q01DX001 (ip), vehicle: saline with Tween-80 102 % of control | endpoint: mean survival time, dose: 12.5 mg/kg/injection, schedule: Q01DX001 (ip), vehicle: saline with Tween-80 98 % of control | endpoint: mean survival time, dose: 25.0 mg/kg/injection, schedule: Q01DX001 (ip), vehicle: saline with Tween-80 98 % of control

Cc1ccccc1NC(=O)Oc1ccc(-c2ccccc2)cc1Cl
inactive: [9] 86 % of control | endpoint: mean survival time, dose: 200.0 mg/kg/injection, schedule: Q04DX002 (ip), vehicle: saline with Tween-80 89 % of control | endpoint: mean survival time, dose: 400.0 mg/kg/injection, schedule: Q04DX002 (ip), vehicle: saline with Tween-80 93 % of control

Nc1cc(Cl)ccc1C(=O)O
inactive: [10] 103 % of control | [11] 104 % of control | [12] 86 % of control

Nc1cccc(-c2nc3ncnc(N)c3[nH]2)c1
inactive: [3] 94 % of control | [4] 94 % of control | [5] 93 % of control

O=C(O)C1CC1
inactive: endpoint: mean survival time, dose: 100.0 mg/kg/injection, schedule: Q01DX001 (ip), vehicle: saline 96 % of control | endpoint: mean survival time, dose: 200.0 mg/kg/injection, schedule: Q01DX001 (ip), vehicle: saline 108 % of control

CC1CC[N-]CC1.CC1CC[N-]CC1.CC1CC[N-]CC1.CC1CC[N-]CC1.CS(C)=O.CS(C)=O.[Cl-].[Cl-].[Cl-].[Cl-].[Pt+4].[Rh+3]
inactive: endpoint: mean survival time, dose: 0.2 mg/kg/injection, schedule: Q01DX009 (ip), vehicle: water 97 % of control | endpoint: mean survival time, dose: 0.4 mg/kg/injection, schedule: Q01DX009 (ip), vehicle: water 92 % of control | endpoint: mean survival time, dose: 0.78 mg/kg/injection, schedule: Q04DX003 (ip), vehicle: Klucel (hydroxypropylcellulose) (HPC) 102 % of control | endpoint: mean survival time, dose: 0.8 mg/kg/injection, schedule: Q01DX009 (ip), vehicle: water 93 % of control | endpoint: mean survival time, dose: 1.5 mg/kg/injection, schedule: Q01DX009 (ip), vehicle: water 97 % of control | endpoint: mean survival time, dose: 1.56 mg/kg/injection, schedule: Q04DX003 (ip), vehicle: Klucel (hydroxypropylcellulose) (HPC) 98 % of control | endpoint: mean survival time, dose: 3.0 mg/kg/injection, schedule: Q01DX009 (ip), vehicle: water 92 % of control | endpoint: mean survival time, dose: 3.13 mg/kg/injection, schedule: Q04DX003 (ip), vehicle: Klucel (hydroxypropylcellulose) (HPC) 102 % of control | endpoint: mean survival time, dose: 6.25 mg/kg/injection, schedule: Q04DX003 (ip), vehicle: water 103 % of control
